Measured values reported in patent EP2951180B1, “2,6,7,8 SUBSTITUTED PURINES AS HDM2 INHIBITORS” (Merck Sharp & Dohme Corp., priority 2013, dated 2014).

Legend:
HDM2 [1] = biological target: T1, HDM2 (Homo sapiens, UniProt Q00987); experiment: FRET assay (HDM2 inhibition; method not described in this part); format: binding; settings: Table 1
T1 construct: Thioredoxin (N); made in house; host or cells: E. coli strain BL21(DE3)Rosetta

HDM2 [2] = biological target: T1, HDM2; experiment: HDM2 FRET assay (inhibition of binding of FITC labeled p53-pocket peptide to HDM2); settings: read-out: FRET IC50
Summary of the method: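 TR-FRET with 0.5 nM His-tagged recombinant HDM2, 3 nM FITC-labelled p53 peptide and 0.25 nM Tb-anti-His antibody in PBS, 0.01% BSA, 0.01% Tween-20, 0.1% DMSO. IC50 from em520/em495 ratio over 10-point dilutions, 4-parameter logistic fit.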

[3] = 0.5 nM HDM2 (residues 17 to 125), 3nM peptide, two hour incubation at room temperature

T1 sequence (Q00987 17-125): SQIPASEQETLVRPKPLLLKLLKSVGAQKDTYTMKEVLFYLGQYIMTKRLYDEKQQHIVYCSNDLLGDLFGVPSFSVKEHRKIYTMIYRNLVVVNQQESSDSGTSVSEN

SMILES	IC50 (HDM2 [1])	further results
CCC(C)c1ccnc(-c2nc3nc(C(=O)O)nc(N[C@H](C)C4CCC4)c3n2Cc2ccc(C(F)(F)F)cc2)c1 (single isomer, unassigned) [Example 1.14]	3.65 nM	–
CCC(C)c1ccnc(-c2nc3nc(C(=O)O)nc(N[C@H](C)C4CCC4)c3n2Cc2ccc(C(F)(F)F)cc2)c1 (single isomer, unassigned) [Example 1.15]	3.32 nM	–
C[C@@H](Nc1nc(C(=O)O)nc2nc(-c3cc(N(C)C)ccc3OC(F)(F)F)n(Cc3ccc(C(F)(F)F)cc3)c12)C1CCC1 [Example 1.1, (R)-6-((1-cyclobutylethyl)amino)-8-(5-(dimethylamino)-2-(trifluoromethoxy)phenyl)-7-(4-(trifluoromethyl)benzyl)-7H-purine-2-carboxylic acid]	11.4 nM	–
CCc1ccc(Cl)c(-c2nc3nc(C(=O)O)nc(N[C@H](C)C4CCC4)c3n2Cc2ccc(C(F)(F)F)cc2)c1 [Example 1.2, (R)-8-(2-chloro-5-ethylphenyl)-6-((1-cyclobutylethyl)amino)-7-(4-(trifluoromethyl)benzyl)-7H-purine-2-carboxylic acid]	23.7 nM	–
CC(C)c1ccc(OC(F)(F)F)c(-c2nc3nc(C(=O)O)nc(N[C@H](C)C4CCC4)c3n2Cc2ccc(C(F)(F)F)c(F)c2)c1 [Example 1.3, (R)-6-((1-cyclobutylethyl)amino)-7-(3-fluoro-4-(trifluoromethyl)benzyl)-8-(5-isopropyl-2-(trifluoromethoxy)phenyl)-7H-purine-2-carboxylic acid]	15.2 nM	–
CC(C)c1cc(-c2nc3nc(C(=O)O)nc(N[C@H](C)C4CCC4)c3n2Cc2ccc(C(F)(F)F)cc2)ccn1 [Example 1.4, (R)-6-((1-cyclobutylethyl)amino)-8-(2-isopropylpyridin-4-yl)-7-(4-(trifluoromethyl)benzyl)-7H-purine-2-carboxylic acid]	58.8 nM	–
C=C(C)c1cc(C)nc(-c2nc3nc(C(=O)O)nc(N[C@H](C)C4CCC4)c3n2Cc2ccc(C(F)(F)F)cc2)c1 [Example 1.5, (R)-6-((1-cyclobutylethyl)amino)-8-(6-methyl-4-(prop-1-en-2-yl)pyridin-2-yl)-7-(4-(trifluoromethyl)benzyl)-7H-purine-2-carboxylic acid]	50.2 nM	–
CC(C)c1ccnc(-c2nc3nc(C(=O)O)nc(N[C@H](C)C4CCC4)c3n2Cc2ccc(Cl)c(F)c2)c1 [Example 1.6, 7-(4-chloro-3-fluorobenzyl)-6-{[(1R)-1-cyclobutylethyl]amino}-8-[4-(propan-2-yl)pyridin-2-yl]-7H-purine-2-carboxylic acid]	2.79 nM	–
CC(C)c1ccnc(-c2nc3nc(C(=O)O)nc(N[C@H](C)C4CCC4)c3n2Cc2ccc(C(F)(F)F)s2)c1 [Example 1.7, 6-{[(1R)-1-cyclobutylethyl]amino}-8-[4-(propan-2-yl)pyridin-2-yl]-7-{[5-(trifluoromethyl)thiophen-2-yl]methyl}-7H-purine-2-carboxylic acid]	26.9 nM	–
C[C@@H](Nc1nc(C(=O)O)nc2nc(-c3cc(C(O)c4ccccc4)ccn3)n(Cc3ccc(C(F)(F)F)cc3)c12)C1CCC1 (stereo partly drawn) [Example 1.8, 6-(((R)-1-cyclobutylethyl)amino)-8-(4-(hydroxy(phenyl)methyl)pyridin-2-yl)-7-(4-(trifluoromethyl)benzyl)-7H-purine-2-carboxylic acid]	20.1 nM	–
C[C@@H](Nc1nc(C(=O)O)nc2nc(-c3cc(Cc4ccccc4)ccn3)n(Cc3ccc(C(F)(F)F)cc3)c12)C1CCC1 [Example 1.9, (R)-8-(4-benzylpyridin-2-yl)-6-((1-cyclobutylethyl)amino)-7-(4-(trifluoromethyl)benzyl)-7H-purine-2-carboxylic acid]	37.4 nM	–
CC(C)c1cc(-c2nc3nc(C(=O)O)nc(N[C@H](C)C4CCC4)c3n2Cc2ccc(C(F)(F)F)cc2)ncc1F [Example 1.10, (R)-6-((1-cyclobutylethyl)amino)-8-(5-fluoro-4-isopropylpyridin-2-yl)-7-(4-(trifluoromethyl)benzyl)-7H-purine-2-carboxylic acid]	3.96 nM	–
CC(C)c1ccc(O)c(-c2nc3nc(C(=O)O)nc(N[C@H](C)C4CCC4)c3n2Cc2ccc(C(F)(F)F)cc2)c1 [Example 1.11, (R)-6-((1-cyclobutylethyl)amino)-8-(2-hydroxy-5-isopropylphenyl)-7-(4-(trifluoromethyl)benzyl)-7H-purine-2-carboxylic acid]	50.3 nM	–
CCOc1ccc(C(C)C)cc1-c1nc2nc(C(=O)O)nc(N[C@H](C)C3CCC3)c2n1Cc1ccc(C(F)(F)F)cc1 [Example 1.12, (R)-6-((1-cyclobutylethyl)amino)-8-(2-ethoxy-5-isopropylphenyl)-7-(4-(trifluoromethyl)benzyl)-7H-purine-2-carboxylic acid]	29.4 nM	–
COC1(c2nc3nc(-c4noc(=O)[nH]4)nc(-c4cncc(Cl)c4)c3n2C[C@H]2CC[C@H](C)CC2)CCCCC1 [Example 23.75, 3-{6-(5-chloropyridin-3-yl)-8-(1-methoxycyclohexyl)-7-[(trans-4-methylcyclohexyl)methyl] -7H-purin-2-yl}-1,2,4-oxadiazol-5(4H)-one]	–	IC50 (HDM2 [2]; Table 23): 30.7 nM
COC1(c2nc3nc(-c4n[nH]c(=O)o4)nc(-c4cncc(Cl)c4)c3n2C[C@H]2CC[C@H](C)CC2)CCCCC1 [Example 23.76, 5-{6-(5-chloropyridin-3-yl)-8-(1-methoxycyclohexyl)-7-[(trans-4-methylcyclohexyl)methyl] -7H-purin-2-yl}-1,3,4-oxadiazol-2(3H)-one]	–	IC50 (HDM2 [2]; Table 23): 14.1 nM
COC1(c2nc3nc(-c4noc(=O)[nH]4)nc(-c4cncc(Cl)c4)c3n2C[C@H]2CC[C@H](C)CC2)CCCC1 [Example 23.77, 3-{6-(5-chloropyridin-3-yl)-8-(1-methoxycyclopentyl)-7-[(trans-4-methylcyclohexyl)methyl] -7H-purin-2-yl}-1,2,4-oxadiazol-5(4H)-one]	–	IC50 (HDM2 [2]; Table 23): 8.06 nM
C[C@H]1CC[C@H](Cn2c(C3(c4ccccc4F)CC3)nc3nc(-c4noc(=O)[nH]4)nc(-c4cncc(Cl)c4)c32)CC1 [Example 23.100, 3-{6-(5-chloropyridin-3-yl)-8-[1-(2-fluorophenyl)cyclopropyl] -7-[(trans-4-methylcyclohexyl)methyl] -7H-purin-2-yl}-1,2,4-oxadiazol-5(4H)-one]	–	IC50 (HDM2 [2]; Table 23): 5.94 nM
Cc1ocnc1C1(c2nc3nc(-c4noc(=O)[nH]4)nc(-c4cccc(Cl)c4)c3n2C[C@H]2CC[C@H](C)CC2)CC1 [Example 23.101, 3-{6-(3-chlorophenyl)-7-[(trans-4-methylcyclohexyl)methyl]-8-[1-(5-methyl-1,3-oxazol-4-yl)cyclopropyl]-7H-purin-2-yl}-1,2,4-oxadiazol-5(4H)-one]	–	IC50 (HDM2 [2]; Table 23): 30.1 nM
C[C@H]1CC[C@H](Cn2c(C3(c4ccccn4)CC3)nc3nc(-c4nc(=O)o[nH]4)nc(-c4cccc(Cl)c4)c32)CC1 [Example 23.102, 3-[6-(3-chlorophenyl)-7-[(trans-4-methylcyclohexyl)methyl] -8-(1-pyridin-2-ylcyclopropyl)-7H-purin-2-yl]-1,2,4-oxadiazol-5(2H)-one]	–	IC50 (HDM2 [2]; Table 23): 17 nM
C[C@H]1CC[C@H](Cn2c(C3CC3)nc3nc(-c4n[nH]c(=O)o4)nc(-c4cccc(Cl)c4)c32)CC1 [Example 24.1, 5-{6-(3-chlorophenyl)-8-cyclopropyl-7-[(trans-4-methylcyclohexyl)methyl]-7H-purin-2-yl}-1,3,4-oxadiazol-2(3H)-one]	–	IC50 (HDM2 [2]; [3]): 62.8 nM
C[C@H]1CC[C@H](Cn2c(C3CC3)nc3nc(-c4noc(=O)[nH]4)nc(-c4cccc(Cl)c4)c32)CC1 [Example 24.2, 3-{6-(3-chlorophenyl)-8-cyclopropyl-7-[(trans-4-methylcyclohexyl)methyl]-7H-purin-2-yl}-1,2,4-oxadiazol-5(4H)-one]	–	IC50 (HDM2 [2]; [3]): 41.7 nM
C[C@H]1CC[C@H](Cn2c(N3CCOC[C@H]3c3ccccc3)nc3nc(-c4noc(=O)[nH]4)nc(-n4cc(Cl)ccc4=O)c32)CC1 [Example 25.1, 5-chloro-1-{7-[(trans-4-methylcyclohexyl)methyl]-2-(5-oxo-4,5-dihydro-1,2,4-oxadiazol-3-yl)-8-[(3R)-3-phenylmorpholin-4-yl]-7H-purin-6-yl}pyridin-2(1H)-one]	–	IC50 (HDM2 [2]; Table 25): 1.01 nM
C[C@H]1CC[C@H](Cn2c(N3CCOC[C@H]3c3ccccc3)nc3nc(-c4noc(=O)[nH]4)nc(Oc4ccc(Cl)cn4)c32)CC1 [Example 25.2, 3-{6-[(5-chloropyridin-2-yl)oxy]-7-[(trans-4-methylcyclohexyl)methyl]-8-[(3R)-3-phenylmorpholin-4-yl]-7H-purin-2-yl}-1,2,4-oxadiazol-5(4H)-one]	–	IC50 (HDM2 [2]; Table 25): 15.4 nM
C[C@H]1CC[C@H](Cn2c(N3CCOC[C@H]3c3ccccc3)nc3nc(-c4n[nH]c(=O)o4)nc(Oc4ccc(Cl)cn4)c32)CC1 [Example 25.3, 5-{6-[(5-chloropyridin-2-yl)oxy]-7-[(trans-4-methylcyclohexyl)methyl]-8-[(3R)-3-phenylmorpholin-4-yl]-7H-purin-2-yl}-1,3,4-oxadiazol-2(3H)-one]	–	IC50 (HDM2 [2]; Table 25): 20.1 nM
C[C@@H]1COCCN1c1nc2nc(CC(=O)O)nc(-c3cccc(Cl)c3)c2n1C[C@H]1CC[C@H](C)CC1 [Example 26.2, {6-(3-chlorophenyl)-7-[(trans-4-methylcyclohexyl)methyl]-8-[(3R)-3-methylmorpholin-4-yl]-7H-purin-2-yl} acetic acid]	–	IC50 (HDM2 [2]; Table 26): 783 nM
CC1CN(c2nc(-c3noc(=O)[nH]3)nc3nc(N4CCOC[C@H]4c4ccccc4)n(C[C@H]4CC[C@H](C)CC4)c23)CCO1 (stereo partly drawn) [Example 26.3, 3-{7-[(trans-4-methylcyclohexyl)methyl]-6-(2-methylmorpholin-4-yl)-8-[(3R)-3-phenylmorpholin-4-yl]-7H-purin-2-yl}-1,2,4-oxadiazol-5(4H)-one]	–	IC50 (HDM2 [2]; Table 26): 14.5 nM
